The values below come from ChEMBL document CHEMBL1201862, “PubChem BioAssay data set” (2004).

Calls of active or inactive are those of the source.

In one experiment the target is T1, Leucine aminopeptidase (Plasmodium falciparum 3D7, UniProt Q8IL11).
T1 sequence (Q8IL11 whole entry): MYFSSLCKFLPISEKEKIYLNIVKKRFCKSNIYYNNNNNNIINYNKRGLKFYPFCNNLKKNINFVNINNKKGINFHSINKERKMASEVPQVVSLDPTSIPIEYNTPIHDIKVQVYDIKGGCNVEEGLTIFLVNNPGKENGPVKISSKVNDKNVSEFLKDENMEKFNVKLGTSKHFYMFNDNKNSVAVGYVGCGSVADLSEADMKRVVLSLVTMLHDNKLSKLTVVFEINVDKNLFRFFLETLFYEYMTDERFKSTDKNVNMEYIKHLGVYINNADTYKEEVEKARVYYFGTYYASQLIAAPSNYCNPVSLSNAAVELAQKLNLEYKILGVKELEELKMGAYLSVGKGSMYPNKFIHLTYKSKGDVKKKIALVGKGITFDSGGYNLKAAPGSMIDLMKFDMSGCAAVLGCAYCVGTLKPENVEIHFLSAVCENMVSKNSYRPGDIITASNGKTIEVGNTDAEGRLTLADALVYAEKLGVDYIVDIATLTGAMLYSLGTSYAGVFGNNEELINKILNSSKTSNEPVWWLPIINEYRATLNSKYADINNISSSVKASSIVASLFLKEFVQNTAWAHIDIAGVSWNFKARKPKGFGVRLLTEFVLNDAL
As to the kind of experiment: P. falciparum M17LAP inhibitors, primary screen, biochemical, fluorogenic H-Leu-NHMec substrate, 1536-well (AID 1619). Format: functional.

For another experiment, the system named is H9c2. As to the kind of experiment: cells. Type of experiment: functional, cell-based. Conditions: Rattus norvegicus, H9c2, Myocardium.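 Note: confirmatory concentration-response retest of ultra-high-throughput screening hits for modulation of myocardial damage; cell death induced by hydrogen peroxide oxidative stress; compound pretreatment for 60 min then peroxide exposure for 2 h; potency is for protecting the cells against peroxide damage rather than for killing them.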
In experiment [1] the target is T2, DNA repair and recombination protein RAD54-like (Homo sapiens, UniProt Q92698).
T2 sequence (Q92698 whole entry): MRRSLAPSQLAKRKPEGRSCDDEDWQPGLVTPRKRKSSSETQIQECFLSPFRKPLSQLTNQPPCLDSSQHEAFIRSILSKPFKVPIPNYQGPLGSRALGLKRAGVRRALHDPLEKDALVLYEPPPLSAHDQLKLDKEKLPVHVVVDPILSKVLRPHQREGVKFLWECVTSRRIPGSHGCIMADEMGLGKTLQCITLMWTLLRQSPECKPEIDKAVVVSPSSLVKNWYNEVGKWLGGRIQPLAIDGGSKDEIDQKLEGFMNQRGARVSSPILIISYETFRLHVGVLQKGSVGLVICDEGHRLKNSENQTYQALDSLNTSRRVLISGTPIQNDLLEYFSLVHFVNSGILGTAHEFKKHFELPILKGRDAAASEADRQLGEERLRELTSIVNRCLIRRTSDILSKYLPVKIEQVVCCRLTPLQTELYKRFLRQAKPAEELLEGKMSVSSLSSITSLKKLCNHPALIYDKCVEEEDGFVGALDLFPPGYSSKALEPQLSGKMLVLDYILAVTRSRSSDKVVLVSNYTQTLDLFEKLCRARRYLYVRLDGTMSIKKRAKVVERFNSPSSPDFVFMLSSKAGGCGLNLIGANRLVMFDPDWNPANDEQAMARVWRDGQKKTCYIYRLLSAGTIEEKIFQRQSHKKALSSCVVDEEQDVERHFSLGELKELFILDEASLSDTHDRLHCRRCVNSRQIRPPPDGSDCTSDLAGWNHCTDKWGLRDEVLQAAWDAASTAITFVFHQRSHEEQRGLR
As to the kind of experiment: inhibitors of human RAD54 branch migration, confirmation, biochemical, fluorescence, cherry-picked samples, dose series (AID 651657). Format: functional.

A short description of experiment [2]: inhibitors of Vif binding to APOBEC3G peptide, primary screen, biochemical, TR-FRET, GST-Vif 1-94, biotin-A3G peptide, dose response retest (AID 1117319).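 Note: TR-FRET signal of purified GST-Vif binding a biotinylated A3G peptide; inhibitors lower the FRET signal by blocking Vif and A3G binding.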 Type of experiment: functional.
In experiment [3] the target is T3, Fatty acid synthase (Homo sapiens, UniProt P49327). As to the kind of experiment: FAS thioesterase domain inhibitors, dose response, biochemical, endpoint fluorescence intensity, uHTS hits (AID 624327).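 Note: fluorescence from hydrolysis of an O-methyl fluorescein acyl ester substrate by the enzyme.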 Type of experiment: functional.
T3 sequence (P49327 whole entry, the tested form may be a part): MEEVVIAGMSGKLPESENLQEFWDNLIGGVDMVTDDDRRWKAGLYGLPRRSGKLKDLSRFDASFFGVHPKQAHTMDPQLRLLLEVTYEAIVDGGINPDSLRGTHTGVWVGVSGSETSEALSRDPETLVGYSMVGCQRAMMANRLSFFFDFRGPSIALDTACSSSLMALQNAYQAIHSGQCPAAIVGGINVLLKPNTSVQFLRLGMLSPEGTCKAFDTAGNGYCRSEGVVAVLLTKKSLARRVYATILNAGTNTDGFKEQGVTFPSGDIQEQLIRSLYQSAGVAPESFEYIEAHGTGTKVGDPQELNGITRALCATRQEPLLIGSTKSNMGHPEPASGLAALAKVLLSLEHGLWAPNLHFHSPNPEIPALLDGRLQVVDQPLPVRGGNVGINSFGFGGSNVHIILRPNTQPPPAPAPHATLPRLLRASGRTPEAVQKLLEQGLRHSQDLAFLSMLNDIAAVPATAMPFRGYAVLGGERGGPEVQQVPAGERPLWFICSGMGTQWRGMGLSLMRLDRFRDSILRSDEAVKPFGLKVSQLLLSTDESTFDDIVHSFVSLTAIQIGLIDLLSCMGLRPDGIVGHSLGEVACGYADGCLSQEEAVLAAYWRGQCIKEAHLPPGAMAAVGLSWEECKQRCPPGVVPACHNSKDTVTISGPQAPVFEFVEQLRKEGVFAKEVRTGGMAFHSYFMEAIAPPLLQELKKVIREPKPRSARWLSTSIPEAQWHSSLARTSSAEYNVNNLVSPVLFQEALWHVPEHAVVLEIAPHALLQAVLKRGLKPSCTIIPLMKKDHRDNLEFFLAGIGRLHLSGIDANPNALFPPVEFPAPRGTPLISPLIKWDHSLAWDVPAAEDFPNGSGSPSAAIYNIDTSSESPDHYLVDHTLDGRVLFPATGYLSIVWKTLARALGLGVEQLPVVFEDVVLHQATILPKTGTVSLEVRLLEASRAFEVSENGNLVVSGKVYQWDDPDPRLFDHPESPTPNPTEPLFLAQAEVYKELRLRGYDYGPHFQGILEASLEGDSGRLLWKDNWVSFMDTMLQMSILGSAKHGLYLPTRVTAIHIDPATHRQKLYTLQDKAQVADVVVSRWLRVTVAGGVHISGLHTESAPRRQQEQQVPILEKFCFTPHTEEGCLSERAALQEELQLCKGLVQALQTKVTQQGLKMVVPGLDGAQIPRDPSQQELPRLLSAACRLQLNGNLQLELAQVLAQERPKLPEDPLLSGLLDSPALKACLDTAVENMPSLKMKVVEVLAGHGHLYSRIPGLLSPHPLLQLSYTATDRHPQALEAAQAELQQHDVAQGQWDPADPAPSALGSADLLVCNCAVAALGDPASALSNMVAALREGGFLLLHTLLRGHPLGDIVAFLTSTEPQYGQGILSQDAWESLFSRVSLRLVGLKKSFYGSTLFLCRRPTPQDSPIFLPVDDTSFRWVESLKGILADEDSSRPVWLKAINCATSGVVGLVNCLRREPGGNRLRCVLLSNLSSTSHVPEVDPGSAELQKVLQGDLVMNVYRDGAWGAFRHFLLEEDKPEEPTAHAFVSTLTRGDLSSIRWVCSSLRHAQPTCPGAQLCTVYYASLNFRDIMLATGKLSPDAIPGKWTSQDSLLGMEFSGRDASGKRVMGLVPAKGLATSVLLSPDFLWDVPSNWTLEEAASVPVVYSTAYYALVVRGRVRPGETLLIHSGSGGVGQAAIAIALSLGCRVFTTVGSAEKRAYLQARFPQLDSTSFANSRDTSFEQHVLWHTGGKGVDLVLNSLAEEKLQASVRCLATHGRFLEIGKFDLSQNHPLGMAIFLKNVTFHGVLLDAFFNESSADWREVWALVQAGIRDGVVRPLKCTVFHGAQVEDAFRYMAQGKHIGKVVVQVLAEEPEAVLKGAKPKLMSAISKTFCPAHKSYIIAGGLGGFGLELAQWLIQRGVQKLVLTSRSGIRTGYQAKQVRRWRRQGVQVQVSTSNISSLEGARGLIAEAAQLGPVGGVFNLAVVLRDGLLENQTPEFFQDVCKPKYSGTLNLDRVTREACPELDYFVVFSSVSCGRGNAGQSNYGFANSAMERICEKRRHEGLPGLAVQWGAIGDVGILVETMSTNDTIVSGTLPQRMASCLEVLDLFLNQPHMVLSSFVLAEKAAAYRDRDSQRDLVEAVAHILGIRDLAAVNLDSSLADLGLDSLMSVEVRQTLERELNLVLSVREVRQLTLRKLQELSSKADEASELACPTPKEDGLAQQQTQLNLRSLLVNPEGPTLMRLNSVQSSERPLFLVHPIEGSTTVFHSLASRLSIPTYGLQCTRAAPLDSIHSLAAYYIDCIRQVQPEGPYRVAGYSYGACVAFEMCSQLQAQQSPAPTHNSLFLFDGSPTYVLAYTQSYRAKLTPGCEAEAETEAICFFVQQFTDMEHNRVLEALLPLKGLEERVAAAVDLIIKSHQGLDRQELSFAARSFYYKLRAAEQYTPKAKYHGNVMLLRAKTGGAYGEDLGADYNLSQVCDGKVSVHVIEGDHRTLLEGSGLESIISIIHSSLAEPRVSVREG
The target in experiment [4] is T3, Fatty acid synthase. Description: FAS thioesterase domain inhibitors, dose response, biochemical, kinetic fluorescence intensity (AID 624326).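 Note: rate of fluorescence rise from hydrolysis of a fluorogenic O-methyl fluorescein ester substrate.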 Format: functional.
Experiment [5] concerns the target T4, Apoptotic protease-activating factor 1 (Homo sapiens, UniProt O14727).
T4 sequence (O14727 whole entry): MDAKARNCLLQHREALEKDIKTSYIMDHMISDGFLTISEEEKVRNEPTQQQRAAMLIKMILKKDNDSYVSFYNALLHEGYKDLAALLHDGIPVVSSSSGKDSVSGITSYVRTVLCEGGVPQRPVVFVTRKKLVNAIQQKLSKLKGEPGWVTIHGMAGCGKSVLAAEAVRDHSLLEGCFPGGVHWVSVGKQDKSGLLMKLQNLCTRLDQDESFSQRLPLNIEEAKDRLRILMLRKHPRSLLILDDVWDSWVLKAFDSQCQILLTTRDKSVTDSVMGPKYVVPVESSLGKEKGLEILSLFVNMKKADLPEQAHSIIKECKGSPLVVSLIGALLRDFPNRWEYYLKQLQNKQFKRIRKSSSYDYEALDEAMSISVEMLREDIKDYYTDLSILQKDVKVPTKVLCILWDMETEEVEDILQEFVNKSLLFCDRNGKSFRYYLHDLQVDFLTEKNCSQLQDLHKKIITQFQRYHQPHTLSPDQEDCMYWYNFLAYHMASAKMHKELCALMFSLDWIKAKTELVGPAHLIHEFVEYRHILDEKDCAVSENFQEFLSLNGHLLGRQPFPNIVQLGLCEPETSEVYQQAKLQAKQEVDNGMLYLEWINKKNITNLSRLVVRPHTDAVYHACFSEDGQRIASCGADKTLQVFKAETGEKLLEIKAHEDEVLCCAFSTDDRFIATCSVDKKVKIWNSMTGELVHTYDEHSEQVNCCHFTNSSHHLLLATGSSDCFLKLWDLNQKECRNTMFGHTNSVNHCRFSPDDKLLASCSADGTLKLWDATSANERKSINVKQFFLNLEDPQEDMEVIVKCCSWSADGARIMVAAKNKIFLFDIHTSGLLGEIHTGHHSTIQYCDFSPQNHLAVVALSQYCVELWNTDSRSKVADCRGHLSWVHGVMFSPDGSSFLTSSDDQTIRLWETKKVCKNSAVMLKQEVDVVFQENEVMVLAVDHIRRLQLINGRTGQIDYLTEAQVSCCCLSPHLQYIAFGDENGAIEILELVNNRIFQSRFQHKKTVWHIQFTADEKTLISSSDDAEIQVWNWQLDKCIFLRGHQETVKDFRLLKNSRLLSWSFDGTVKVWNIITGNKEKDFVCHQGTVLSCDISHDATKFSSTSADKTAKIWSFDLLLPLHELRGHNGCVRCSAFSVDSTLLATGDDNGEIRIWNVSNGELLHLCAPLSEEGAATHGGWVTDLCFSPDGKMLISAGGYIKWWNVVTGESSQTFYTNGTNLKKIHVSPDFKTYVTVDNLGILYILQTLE
Format: functional.

Experiment [6] addresses T5, DNA repair protein RAD52 homolog (Homo sapiens, UniProt P43351).
T5 sequence (P43351 whole entry): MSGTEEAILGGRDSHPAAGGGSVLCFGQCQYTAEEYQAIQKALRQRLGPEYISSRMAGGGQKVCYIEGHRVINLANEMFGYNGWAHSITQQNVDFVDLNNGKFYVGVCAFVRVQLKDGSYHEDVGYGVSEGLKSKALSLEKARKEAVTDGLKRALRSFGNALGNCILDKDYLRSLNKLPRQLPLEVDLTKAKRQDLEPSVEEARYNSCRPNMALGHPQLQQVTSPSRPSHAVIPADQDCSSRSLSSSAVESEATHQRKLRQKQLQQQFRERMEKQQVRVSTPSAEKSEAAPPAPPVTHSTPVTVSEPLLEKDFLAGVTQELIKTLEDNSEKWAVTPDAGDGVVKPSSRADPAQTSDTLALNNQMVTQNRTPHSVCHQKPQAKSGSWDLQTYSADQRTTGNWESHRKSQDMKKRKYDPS
Format: functional, biochemical.

Experiment [7] deals with 72 kDa type IV collagenase (Homo sapiens, UniProt P08253). Description: Dose Response validation of uHTS RPN11 inhibitor hits using a MMP-2 Fluorescence assay. Format: functional.
72 kDa type IV collagenase, sequence (P08253 whole entry): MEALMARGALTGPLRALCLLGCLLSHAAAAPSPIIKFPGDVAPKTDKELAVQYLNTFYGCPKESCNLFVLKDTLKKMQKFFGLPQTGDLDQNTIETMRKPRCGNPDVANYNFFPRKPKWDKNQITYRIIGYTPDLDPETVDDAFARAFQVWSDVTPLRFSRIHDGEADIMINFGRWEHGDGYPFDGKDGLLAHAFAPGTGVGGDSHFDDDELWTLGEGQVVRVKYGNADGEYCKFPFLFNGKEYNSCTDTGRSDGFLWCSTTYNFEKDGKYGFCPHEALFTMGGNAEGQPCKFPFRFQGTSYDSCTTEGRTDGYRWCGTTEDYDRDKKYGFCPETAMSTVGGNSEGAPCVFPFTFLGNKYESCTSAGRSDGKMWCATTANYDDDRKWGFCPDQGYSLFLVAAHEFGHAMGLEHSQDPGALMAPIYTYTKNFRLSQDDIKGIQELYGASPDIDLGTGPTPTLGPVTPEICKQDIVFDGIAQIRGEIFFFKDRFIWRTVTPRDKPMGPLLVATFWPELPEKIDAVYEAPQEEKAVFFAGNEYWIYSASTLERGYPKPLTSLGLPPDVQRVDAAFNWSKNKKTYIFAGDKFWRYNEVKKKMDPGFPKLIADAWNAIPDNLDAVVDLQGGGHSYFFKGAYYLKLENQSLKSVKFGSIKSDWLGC
Experiment [8] concerns the target Heat shock protein HSP 90-alpha (Homo sapiens, UniProt P07900). Type of experiment: functional, organism-based.
Experiment [9] has as its target 26S proteasome non-ATPase regulatory subunit 14 (Homo sapiens, UniProt O00487). As to the kind of experiment: inhibition of proteasome subunit RPN11 – biochemical, fluorescence polarization, uHTS hits, confirmation (AID 602368). Type of experiment: functional.
Another experiment has as its target Prothrombin (Bos taurus, UniProt P00735). Description: thrombin inhibition, dose response, biochemical, fluorescence polarization, uHTS hits (AID 602369). Type of experiment: functional.
In the next experiment the target is Paired box protein Pax-8 (Homo sapiens, UniProt Q06710). As to the kind of experiment: inhibitors of PAX8-driven TPO luciferase reporter, dose response, RMG-I cells, cherry-pick (AID 687027).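 Note: luciferase reporter driven by Pax8 target thyroperoxidase promoter measured by SteadyGlo luminescence.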 Format: functional, cell-based.
Paired box protein Pax-8, sequence (Q06710 whole entry): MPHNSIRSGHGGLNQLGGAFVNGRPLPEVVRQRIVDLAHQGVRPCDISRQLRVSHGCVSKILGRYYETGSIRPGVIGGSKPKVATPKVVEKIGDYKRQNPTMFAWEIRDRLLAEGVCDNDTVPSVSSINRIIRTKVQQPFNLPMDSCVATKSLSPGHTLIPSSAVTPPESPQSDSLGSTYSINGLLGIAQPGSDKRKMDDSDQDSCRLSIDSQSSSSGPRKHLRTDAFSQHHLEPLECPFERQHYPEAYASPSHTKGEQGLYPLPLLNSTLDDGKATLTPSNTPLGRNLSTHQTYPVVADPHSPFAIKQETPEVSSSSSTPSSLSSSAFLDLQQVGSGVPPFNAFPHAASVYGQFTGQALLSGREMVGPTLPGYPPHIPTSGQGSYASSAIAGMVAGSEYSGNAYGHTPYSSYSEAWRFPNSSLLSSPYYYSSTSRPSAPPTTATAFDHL
Experiment [10] can be described thus: PAX2 cell-based inhibition, dose response, selectivity assay for PAX8 inhibitor project, plate reader, dry powder samples (AID 743048).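 Note: HEK293 cells carrying a WT1 promoter luciferase reporter driven by expressed Pax2; potency is for inhibition of Pax2 driven reporter signal.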 Type of experiment: functional.
Experiment [11] is described as follows: cytotoxicity dependent on PAX8, dose response, cell-based, plate reader, dry powder (AID 743049). Type of experiment: functional.
A short description of experiment [12]: cytotoxicity in OVCAR8 ovarian cancer cells, dose response, PAX8 project, cell-based, plate reader, dry powder samples (AID 743197). Conditions: OVCAR-8. Format: functional.

26S proteasome non-ATPase regulatory subunit 14, sequence (O00487 whole entry): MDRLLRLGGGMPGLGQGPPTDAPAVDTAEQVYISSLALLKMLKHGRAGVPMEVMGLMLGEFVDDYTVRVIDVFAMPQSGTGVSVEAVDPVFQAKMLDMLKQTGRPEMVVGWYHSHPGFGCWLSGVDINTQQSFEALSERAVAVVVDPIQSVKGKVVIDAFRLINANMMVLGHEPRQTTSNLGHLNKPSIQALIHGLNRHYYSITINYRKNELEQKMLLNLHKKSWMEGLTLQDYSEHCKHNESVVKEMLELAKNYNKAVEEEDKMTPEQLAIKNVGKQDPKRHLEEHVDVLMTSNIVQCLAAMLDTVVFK

Consider `O=C(CSc1nnc[nH]1)Nc1ccc(Br)cc1F`, for which the IC50 at Leucine aminopeptidase was 29.8 µM (active).

On to `COc1ccc(CCn2c(=N)c(C(=O)NCC3CCCO3)cc3c(=O)n4cccc(C)c4nc32)cc1OC` (stereo not drawn), for which the IC50 in the experiment on H9c2 was > 79 µM (inactive). In addition, the AC50 in experiment [1] is 14.4 µM (active).

For `CC1(C)Oc2ccc(C(=O)NC3CCCC3)cc2N(CC(=O)N2CCOCC2)C1=O`, the half-inhibitory concentration (IC50) in experiment [2] is > 100 µM (active).

Regarding `CCc1cc2c(=O)n(-c3ccc(C)cc3)cnc2s1`, the half-inhibitory concentration (IC50) in [2] is > 100 µM (active).

With `O=C(NCCCCc1ccccc1)c1cccc([N+](=O)[O-])c1`, the IC50 at Fatty acid synthase [3] was 11.1 µM (active); at Fatty acid synthase [4] it was 8.43 µM (active).

With `CCN1C(=O)N(CC)C(=O)C2(Cc3ccccc3N3CCN(c4ccccc4)CC32)C1=O` (stereo not drawn), the half-maximal inhibitory concentration (IC50) in [2] is > 100 µM (active).

As to `COc1ccc(NCc2nnc(SCC(=O)N3CCCc4ccccc43)o2)cc1`, the IC50 in [2] is > 100 µM (active).

Regarding `CCOC(=O)c1c(CN(C)C)n(C)c2c(O)c(N=NC(N)=O)c3ccc(Br)cc3c12`, the IC50 in experiment [5] was 12.1 µM (active). The half-maximal activity concentration (AC50) in experiment [6] is 11.6 µM (active).

For `COc1ccc(NC(=O)CSC2CC(=O)N(c3ccc4c(c3)OCCO4)C2=O)cc1` (stereo not drawn), the IC50 at Leucine aminopeptidase was 16.1 µM (active).

Take `Cc1csc(N2CCN(c3cc4c(cc3Cl)nc(-c3ccncc3)n4CCCN3CCCC3)CC2)n1`: the AC50 in [6] is 4.61 µM (active).

For the compound `O=C(NCCCN1CCOCC1)c1cnn2c(-c3ccccc3)cc(-c3ccccc3)nc12`, in experiment [1], the AC50 is 27 µM (active).

`NC(=O)c1c(NC(=S)Nc2ccc(F)cc2)sc2c1CCCC2`: the IC50 at Leucine aminopeptidase is 92 µM (active).

With `CC1(C)CCN(Cc2ccccc2)C1CC#N` (stereo not drawn), the concentration for half-maximal inhibition (IC50) in [2] is > 100 µM (active).

For `CCN(Cc1ccccc1)C(=O)c1cnc2ccc(S(=O)(=O)N(C)CCC#N)cc2c1O`, the results for the half-maximal inhibitory concentration (IC50) at Fatty acid synthase [3] and at Fatty acid synthase [4] were 12 µM (active) and 7.6 µM (active), respectively.

Turning to `COC(=O)c1c(NC(=O)C2C3CCC(O3)C2C(=O)O)sc2c1CCCCCC2` (stereo not drawn), the 50% inhibitory concentration (IC50) at Leucine aminopeptidase is 48.9 µM (active).

Take `CCN(CC)CCCN(C(=O)c1ccc(Br)cc1)c1nc(-c2ccc(OC)cc2)cs1`: the AC50 in experiment [6] was 17.2 µM (active).

As to `Cc1ccc(C(=O)NCC(=O)OCc2nnc(-c3ccc([N+](=O)[O-])cc3)o2)s1`, the IC50 on Fatty acid synthase [3] was 15.1 µM (active); at Fatty acid synthase [4], 12.7 µM (active).

Turning to `Cc1cc(N=Nc2ccccc2C(=O)O)c(C)c(C)c1O`, the half-inhibitory concentration (IC50) was 43.4 µM (active) in [7], 25.4 µM (active) in experiment [9] and 34.2 µM (active) on Prothrombin. Moreover, the concentration at half-maximal activity (AC50) in experiment [8] is 4.36 µM (active).

As for `CCc1nc2c(OCc3ccc(Cl)cc3Cl)cccn2c1N(C=O)Cc1ccc(OC)cc1`, the figures for the IC50 on Fatty acid synthase [3] and on Fatty acid synthase [4] were 2.45 µM (active) and 1.46 µM (active), respectively.

`CN(C)CCCNc1nc2cc(-c3ccc(C(=O)N4CCN(C)CC4)cc3)sc2c(=O)n1C`: in experiment [1], the AC50 is 47.7 µM (active).

Take `COc1ccc(S(=O)(=O)Nc2ccc3c(c2)CC(=O)N([C@@H](C)CO)C[C@@H](C)[C@@H](CN(C)Cc2ccc(-c4ccccc4)cc2)O3)cc1`: the AC50 on Paired box protein Pax-8 is 24.6 µM (active); in [10], 42 µM (active); in [11] it was 44.2 µM (active); in experiment [12] it was > 70 µM (inactive).
